Tests used:
[1] = system: intracranial LPS-induced neuroinflammation; assay: Anti-inflammatory treatment in intracranial LPS neuroinflammation model, read by [18F]CB251 PET and BLI; assay type: in vivo, mouse; settings: CDDO-Me i.p. once daily for 3 days after LPS vs LPS-injected mice
Procedure: Luciferase-expressing cells were isolated from the dissected spleens of transgenic C57BL/6luc^Tg mice and centrifuged at 1300 rpm for 5 min at 4 °C). The red blood cell lysis buffer (1 mL/spleen, Sigma-Aldrich) was added to the cell pellet, and the mixture was incubated at room temperature for 3 min to remove red cells. After a double volume of RPMI medium was added to the cells, 2-3 volumes of red blood cell lysis buffer were added until complete lysis of red blood cells. Subsequently, the cells were re-suspended, ensuring a suspension of single cells, and filtered through a cell strainer (40 µm nylon, Falcon, Oneonta, NY). […] Bioluminescence intensity was measured by an IVIS 100 system (Perkin Elmer, Waltham, MA). […]
(§1) PET images were reconstructed using 3D OSEM algorithm (12 subsets and 3 iterations). […] PET and MR images were reconstructed and analyzed by the AMIDE program (ver 0.9.0, http://amide.sourceforge.net). The ratio of maximum PET SUV in the right and left striatum was then calculated.
An in vivo IVIS 100 bioluminescence/optical imaging system (Xenogen, Alameda, CA, USA) was used to follow luciferase-expressing peripheral immune cells. […] The bioluminescent signal was acquired and analyzed by Living Image ver.2.50.2 software (Xenogen). […]

[2] = system: 293FT cells expressing polymorphic TSPO; assay: In vitro cellular uptake of radioactive ligands in cells expressing polymorphic TSPO; assay type: cell-based, human; settings: 293FT cells expressing TSPO WT or Mut-A147T; 1 h at 37°C
Procedure: Cells were seeded in 6-well plates (Sigma-Aldrich) until they reached approximately 80% confluency. […] The cells were then trypsinized (Gibco), counted, and 1×10^5 cells transferred into a 5 mL test tube containing warmed Hank's balanced salt solution (HBSS, Sigma-Aldrich) with 0.5% (w/v) bovine serum albumin (Sigma-Aldrich). […] The cells were then washed 3 times with cold HBSS and lysed for 5 min in 200 μL of 1% sodium dodecyl sulfate (SDS, Sigma-Aldrich). Cell lysates were collected, and radioactivity was measured by a Cobra II gamma counter (Canberra Packard; Vaughan, Ontario, Canada). Radioactivity was normalized according to the amount of total protein at the time of assay. Total protein levels were quantified by the BCA protein assay kit (Pierce, Rockford, IL, USA). All experiments were performed in triplicate.

[3] = system: 293FT cells expressing polymorphic TSPOs; assay: PET scans of 293FT cells expressing polymorphic TSPOs (phantoms and mice bearing the cells); set-up: species or system human; settings: phantoms and mice bearing 293FT cells with polymorphic TSPOs
[4] = system: 293FT cells transfected with pCMV-TSPO/eGFP; assay: [18F]CB251 uptake in TSPO-overexpressing cells; assay type: cell-based, human; settings: TSPO-overexpressing 293FT cells vs control
Procedure: (§2) For overexpression of the TSPO protein, the 293FT cell line was transiently transfected with vectors (pCMV-eGFP/TSPO) (AddGene, Cambridge, MA, USA) harboring the eGFP and TSPO coding sequences. MDA-MB-231, which highly expresses TSPO, was used for the reduction of TSPO expression by shRNA (pCMV-eGFP/shTSPO; AddGene). Each vector used for various levels of TSPO expression was transfected by Lipofectamine 2000 (Invitrogen, Waltham, MA, USA) at a total concentration of 2.5 µg/mL. Fluorescent images were acquired by a confocal laser-scanning microscope (Leica TCS SP8; Wetzlar, Hesse, Germany), and Western blotting was performed for verification.
(§3) Cells were seeded in 6-well plates (Sigma-Aldrich) until they reached approximately 80% confluency. Before the uptake experiments, the cells were preincubated with glucose-free RPMI-1640 medium (Gibco) for 4 h. The cells were then trypsinized (Gibco), counted, and 1×10^5 cells transferred into a 5 mL test tube containing warmed Hank's balanced salt solution (HBSS, Sigma-Aldrich) with 0.5% (w/v) bovine serum albumin (Sigma-Aldrich). […] Cell lysates were collected, and radioactivity was measured by a Cobra II gamma counter (Canberra Packard; Vaughan, Ontario, Canada). Radioactivity was normalized according to the amount of total protein at the time of assay. Total protein levels were quantified by the BCA protein assay kit (Pierce, Rockford, IL, USA). […]

[5] = system: MDA-MB-231 cells transfected with pCMV-shTSPO/eGFP; assay: [18F]CB251 uptake in cells with reduced TSPO expression; assay type: cell-based, human; settings: MDA-MB-231 cells with reduced TSPO expression vs control
Procedure: as §2, §3

RAW264.7 = assay: [18F]CB251 uptake in activated macrophage cell line; assay type: cell-based, mouse; settings: RAW264.7 activated with LPS and IFN-γ for 24 h vs non-activated
Procedure: (§4) RAW264.7, a mouse macrophage cell line and mouse splenocytes were used to evaluate TSPO expression. LPS (50 ng/mL, Sigma-Aldrich, St.Louis, MO, USA) and IFN-γ (20 ng/mL, Sigma-Aldrich) were used to activate immune cells. The 293FT (Invitrogen, Carlsbad, CA, USA) and MDA-MB-231 (ATCC, Manassas, VA, USA) cell lines were used for various TSPO expression levels. Cells were maintained in complete DMEM (for Raw264.7 and MDA-MB-231) or MEM (for 293FT) with 10% FBS and 1% antibiotics (penicillin-streptomycin). All media and reagents for cell culture, including FBS and antibiotics were purchased from Gibco (Grand Island, NY, USA).
as §3

mouse splenocytes = assay: [18F]CB251 uptake in activated splenocytes; assay type: cell-based; settings: mouse splenocytes activated with LPS and IFN-γ for 24 h vs non-activated
Procedure: as §4, §3

TSPO [6] = target: T1, TSPO (Mus musculus, UniProt P50637); assay: [18F]CB251 PET/MR in intracranial LPS neuroinflammation model; assay type: in vivo; settings: saline-injected mice, day 4; p=0.012
T1 construct: from tissue; host or cells: brain (striatum) of living C57BL/6 mice after intracranial LPS or saline
T1 sequence (P50637 whole entry): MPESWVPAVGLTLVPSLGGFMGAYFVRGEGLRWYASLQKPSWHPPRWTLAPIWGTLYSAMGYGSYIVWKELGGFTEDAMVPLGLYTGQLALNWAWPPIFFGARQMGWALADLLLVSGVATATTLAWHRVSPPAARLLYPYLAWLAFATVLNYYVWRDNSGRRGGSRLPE
Procedure: C57BL/6 mice (male, 6 weeks old) were used for generating the intracranial inflammation model. LPS (Sigma-Aldrich, 5 µg/2 µL dissolved in saline) was used to induce local inflammation in the right striatum of the mouse brain (anteroposterior, +1.8; mediolateral, +2.0; dorsoventral, -3.0) via intracranial injection by a robotic stereotaxic device (Stoelting, Wood Dale, IL) equipped with a Hamilton syringe at a rate of 0.25 µL/min [52]-[54]. Saline was injected as a control. The mouse was placed in the isoflurane induction box (5% isoflurane, 95% air, 250 cc/min) until the animal was fully anesthetized, and the isoflurane percentage was adjusted to 2% at a flow rate of 250 cc/min during the process.
To visualize neuroinflammation, PET/MR scans were acquired by a simultaneous small animal PET insert (SimPET, Brightonic imaging, Seoul, Korea) combined with an M7 1.0 T MRI system (Aspect Imaging, Jerusalem, Israel). […] Mice were anesthetized with 1.5% isoflurane during imaging.
as §1

TSPO [7] = settings: Ki of ligands for TSPO; cited from earlier work
TSPO A147T mutant (LAB) = settings: previous reports; cited from earlier work

COC(=O)[C@]12CCC(C)(C)C[C@H]1[C@H]1C(=O)C=C3[C@@]4(C)C=C(C#N)C(=O)C(C)(C)[C@@H]4CC[C@@]3(C)[C@]1(C)CC2 [CDDO-Me, 2-Cyano-3,12-dioxo-oleana-1,9(11)-dien-28-oic acid methyl ester]
BLI signal ratio (total photon flux, right/left striatum) ([1]; p=0.0025): decreased dramatically
[18F]CB251 uptake ratio (SUVmax, right/left striatum) ([1]; p=0.0323): significantly decreased

CCCN(CCC)C(=O)Cc1c(-c2ccc(OCCF)cc2)nc2c(Cl)cc(Cl)cn12 [CB251]
sensitivity of cellular uptake to TSPO polymorphism [2]: much less sensitive to TSPO polymorphism
sensitivity of PET signal to TSPO polymorphism [3]: less sensitive to TSPO polymorphism
[18F]CB251 uptake [4]: increased
[18F]CB251 uptake [5]: decreased
[18F]CB251 uptake (RAW264.7): increased
[18F]CB251 uptake (mouse splenocytes): increased
[18F]CB251 PET signal, saline-injected right striatum vs non-injected left striatum (TSPO [6]): increased slightly

CCC(C)N(C)C(=O)c1cc2ccccc2c(-c2ccccc2Cl)n1 (stereo not drawn) [PK11195, reference compound]
sensitivity of cellular uptake to TSPO polymorphism [2]: much less sensitive to TSPO polymorphism

COc1ccccc1CN(C(C)=O)c1cnccc1Oc1ccccc1 [PBR28, reference compound]
Ki (TSPO [7]): 6.1 nM
ratio of IC50 LAB/HAB (TSPO A147T mutant (LAB)): 55
